Results reported in the NIST ThermoML archive (doi:10.1016/j.fluid.2007.07.016).

Assay: xn = mol fraction of the nth substance listed
Details: 101 kPa, Liquid; for viscosity: Capillary tube (Ostwald / Ubbelohde) method; for speed of sound: Linear variable-path acoustic interferometer

C1CCOC1 [tetrahydrofuran] + c1ccccc1
Details	speed of sound, 288.15 K [m/s]	speed of sound, 298.15 K [m/s]	speed of sound, 308.15 K [m/s]	speed of sound, 318.15 K [m/s]	viscosity, 288.15 K [mPa·s]	viscosity, 298.15 K [mPa·s]	viscosity, 308.15 K [mPa·s]	viscosity, 318.15 K [mPa·s]
x1 = 0.0754	1351.7	1302.5	1256	1206.1	0.6847	0.5973	0.536	0.4667
x1 = 0.1518	1350.7	1301.4	1254.7	1205.1	0.6762	0.5921	0.533	0.4665
x1 = 0.223	1349.8	1300.6	1253.6	1204.3	0.6673	0.5863	0.529	0.4659
x1 = 0.2962	1348.5	1299.3	1252.2	1203.2	0.6573	0.5793	0.5237	0.4637
x1 = 0.3556	1347.4	1298.4	1251.3	1202.5	0.6484	0.5728	0.5186	0.4609
x1 = 0.4128	1346.3	1297.5	1250.3	1201.8	0.6394	0.5659	0.5128	0.4574
x1 = 0.4812	1344.6	1296	1248.8	1200.7	0.6277	0.5568	0.505	0.4522
x1 = 0.5506	1342.7	1294.3	1247.1	1199.4	0.6151	0.5467	0.4961	0.4457
x1 = 0.6219	1340.5	1292.4	1245.1	1197.8	0.6013	0.5353	0.4858	0.4379
x1 = 0.6884	1338	1290.2	1243	1196.1	0.5875	0.5237	0.4752	0.4295
x1 = 0.7512	1335.3	1287.9	1240.8	1194.4	0.5739	0.512	0.4643	0.4207
x1 = 0.8119	1332.7	1285.5	1238.6	1192.7	0.56	0.4999	0.4529	0.4112
x1 = 0.8792	1329.3	1282.7	1236.1	1190.7	0.5439	0.4857	0.4394	0.3996
x1 = 0.9388	1326.3	1280.1	1233.8	1188.9	0.5289	0.4724	0.4265	0.3885
x1 = 1	1323.1	1277.6	1231.5	1187.2	0.5129	0.458	0.4125	0.3762
